According to PubChem BioAssay (NCI):
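Five compound concentrations were applied to cells in 96-well plates for 48 hours; endpoints were derived by simple linear interpolation of the resulting dose-response curve. Here, GI50 denotes the concentration required for 50% inhibition of growth. TGI denotes the concentration required for complete inhibition of growth.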

Columns and labels:
Test in all cases: growth of human tumour cells (NCI), 48 h
OVCAR-5 ovarian = test system: OVCAR-5 ovarian
TK-10 renal = test system: TK-10 renal
IGROV1 ovarian = test system: IGROV1 ovarian
HOP-62 NSCLC = test system: HOP-62 NSCLC
HL-60(TB) leukemia = test system: HL-60(TB) leukemia
OVCAR-8 ovarian = test system: OVCAR-8 ovarian
DU-145 prostate = test system: DU-145 prostate
HT29 colon = test system: HT29 colon
SF-268 CNS = test system: SF-268 CNS
KM12 colon = test system: KM12 colon
NCI-H460 lung = test system: NCI-H460 lung
HOP-92 NSCLC = test system: HOP-92 NSCLC
786-0 renal = test system: 786-0 renal
SK-OV-3 ovarian = test system: SK-OV-3 ovarian
ACHN renal = test system: ACHN renal
UO-31 renal = test system: UO-31 renal
SF-539 CNS = test system: SF-539 CNS
U251 CNS = test system: U251 CNS
COLO 205 colon = test system: COLO 205 colon
OVCAR-3 ovarian = test system: OVCAR-3 ovarian
NCI-H23 lung = test system: NCI-H23 lung
MOLT-4 leukemia = test system: MOLT-4 leukemia
MDA-MB-435 = test system: MDA-MB-435
MDA-MB-231 breast = test system: MDA-MB-231 breast
A549 NSCLC = test system: A549 NSCLC
SR leukemia = test system: SR leukemia
BT-549 breast = test system: BT-549 breast
SF-295 CNS = test system: SF-295 CNS
K-562 leukemia = test system: K-562 leukemia
MCF7 breast = test system: MCF7 breast
M14 melanoma = test system: M14 melanoma
LOX IMVI melanoma = test system: LOX IMVI melanoma
NCI/ADR-RES ovarian = test system: NCI/ADR-RES ovarian
HS 578T breast = test system: HS 578T breast
RPMI-8226 leukemia = test system: RPMI-8226 leukemia
HCT-15 colon = test system: HCT-15 colon
SK-MEL-28 melanoma = test system: SK-MEL-28 melanoma
T-47D breast = test system: T-47D breast
SNB-19 CNS = test system: SNB-19 CNS
OVCAR-4 ovarian = test system: OVCAR-4 ovarian
HCT-116 colon = test system: HCT-116 colon
PC-3 prostate = test system: PC-3 prostate
HCC-2998 colon = test system: HCC-2998 colon
SW-620 colon = test system: SW-620 colon
SK-MEL-5 melanoma = test system: SK-MEL-5 melanoma
UACC-257 melanoma = test system: UACC-257 melanoma
SK-MEL-2 melanoma = test system: SK-MEL-2 melanoma
MALME-3M melanoma = test system: MALME-3M melanoma
SNB-75 CNS = test system: SNB-75 CNS
SN12C renal = test system: SN12C renal
UACC-62 melanoma = test system: UACC-62 melanoma
A498 renal = test system: A498 renal
CAKI-1 renal = test system: CAKI-1 renal
NCI-H226 lung = test system: NCI-H226 lung

Structure (SMILES): OCc1cc2ccccc2c2c3c(ccc12)OCO3
- GI50 (OVCAR-5 ovarian): 40.9 µM
- TGI (OVCAR-5 ovarian): 207 µM
- GI50 (TK-10 renal): 31.2 µM
- TGI (TK-10 renal): 79.1 µM
- GI50 (IGROV1 ovarian): 33.6 µM
- TGI (IGROV1 ovarian): 111 µM
- GI50 (HOP-62 NSCLC): 31.6 µM
- TGI (HOP-62 NSCLC): 131 µM
- GI50 (HL-60(TB) leukemia): 23.7 µM
- TGI (HL-60(TB) leukemia): 66.2 µM
- GI50 (OVCAR-8 ovarian): 29.2 µM
- TGI (OVCAR-8 ovarian): 199 µM
- GI50 (DU-145 prostate): 44 µM
- TGI (DU-145 prostate): 170 µM
- GI50 (HT29 colon): 27.5 µM
- TGI (HT29 colon): 78.6 µM
- GI50 (SF-268 CNS): 33.8 µM
- TGI (SF-268 CNS): 117 µM
- GI50 (KM12 colon): 35 µM
- TGI (KM12 colon): 137 µM
- GI50 (NCI-H460 lung): 28.5 µM
- TGI (NCI-H460 lung): 752 µM
- GI50 (HOP-92 NSCLC): 14.7 µM
- TGI (HOP-92 NSCLC): 58.2 µM
- GI50 (786-0 renal): 42.3 µM
- TGI (786-0 renal): 203 µM
- GI50 (SK-OV-3 ovarian): 32 µM
- TGI (SK-OV-3 ovarian): 96.6 µM
- GI50 (ACHN renal): 32.1 µM
- TGI (ACHN renal): 141 µM
- GI50 (UO-31 renal): 26.3 µM
- TGI (UO-31 renal): 108 µM
- GI50 (SF-539 CNS): 23.2 µM
- TGI (SF-539 CNS): 87 µM
- GI50 (U251 CNS): 28.6 µM
- TGI (U251 CNS): 141 µM
- GI50 (COLO 205 colon): 18.8 µM
- TGI (COLO 205 colon): 37.4 µM
- GI50 (OVCAR-3 ovarian): 36.4 µM
- TGI (OVCAR-3 ovarian): 168 µM
- GI50 (NCI-H23 lung): 34.1 µM
- TGI (NCI-H23 lung): 221 µM
- GI50 (MOLT-4 leukemia): 28.5 µM
- TGI (MOLT-4 leukemia): 82.3 µM
- GI50 (MDA-MB-435): 39.3 µM
- TGI (MDA-MB-435): 160 µM
- GI50 (MDA-MB-231 breast): 29.1 µM
- TGI (MDA-MB-231 breast): 175 µM
- GI50 (A549 NSCLC): 30.3 µM
- TGI (A549 NSCLC): 126 µM
- GI50 (SR leukemia): 28.4 µM
- TGI (SR leukemia): 76.8 µM
- GI50 (BT-549 breast): 27.1 µM
- TGI (BT-549 breast): 76.3 µM
- GI50 (SF-295 CNS): 33.8 µM
- TGI (SF-295 CNS): 154 µM
- GI50 (K-562 leukemia): 40 µM
- GI50 (MCF7 breast): 26.5 µM
- TGI (MCF7 breast): 125 µM
- GI50 (M14 melanoma): 41.2 µM
- TGI (M14 melanoma): 169 µM
- GI50 (LOX IMVI melanoma): 35.7 µM
- TGI (LOX IMVI melanoma): 118 µM
- GI50 (NCI/ADR-RES ovarian): 29.6 µM
- TGI (NCI/ADR-RES ovarian): 126 µM
- GI50 (HS 578T breast): 29.8 µM
- TGI (HS 578T breast): 144 µM
- GI50 (RPMI-8226 leukemia): 26.2 µM
- TGI (RPMI-8226 leukemia): 94.4 µM
- GI50 (HCT-15 colon): 32.5 µM
- GI50 (SK-MEL-28 melanoma): 35.3 µM
- TGI (SK-MEL-28 melanoma): 350 µM
- GI50 (T-47D breast): 24.1 µM
- TGI (T-47D breast): 81.5 µM
- GI50 (SNB-19 CNS): 35.6 µM
- TGI (SNB-19 CNS): 286 µM
- GI50 (OVCAR-4 ovarian): 30.6 µM
- TGI (OVCAR-4 ovarian): 603 µM
- GI50 (HCT-116 colon): 30.6 µM
- TGI (HCT-116 colon): 149 µM
- GI50 (PC-3 prostate): 25.4 µM
- TGI (PC-3 prostate): 140 µM
- GI50 (HCC-2998 colon): 37.8 µM
- TGI (HCC-2998 colon): 232 µM
- GI50 (SW-620 colon): 29 µM
- TGI (SW-620 colon): 118 µM
- GI50 (SK-MEL-5 melanoma): 20.6 µM
- TGI (SK-MEL-5 melanoma): 59.9 µM
- GI50 (UACC-257 melanoma): 28.1 µM
- TGI (UACC-257 melanoma): 82.3 µM
- GI50 (SK-MEL-2 melanoma): 32.2 µM
- TGI (SK-MEL-2 melanoma): 84.9 µM
- GI50 (MALME-3M melanoma): 48.1 µM
- TGI (MALME-3M melanoma): 209 µM
- GI50 (SNB-75 CNS): 18.4 µM
- TGI (SNB-75 CNS): 64 µM
- GI50 (SN12C renal): 29.1 µM
- TGI (SN12C renal): 141 µM
- GI50 (UACC-62 melanoma): 21.5 µM
- TGI (UACC-62 melanoma): 74.2 µM
- GI50 (A498 renal): 13.1 µM
- TGI (A498 renal): 39.5 µM
- GI50 (CAKI-1 renal): 29.3 µM
- TGI (CAKI-1 renal): 188 µM
- GI50 (NCI-H226 lung): 23.7 µM
- TGI (NCI-H226 lung): 163 µM
